In brackets after ≈: the same amount, converted by molar mass. Peptide text beside a SMILES is read from it.
Assays:
Assay type in all cases: cell-based
[1] = system: Acinetobacter baumannii ATCC 19606 (non-MDR); settings: ATCC 19606
Description: (§1) Each peptide was formulated in PBS buffer prior to testing. Peptides of SEQ ID NO:5 and SEQ ID NO:8 were brought up in 100% DMSO with 0.002% polysorbate-80 at 1.28 mg/mL (40× the highest final test concentration of 32 mcg/mL). Final test concentration of DMSO was 2.5% in the assay at the first dilution for those two compounds.
(§2) Mueller Hinton II broth (MHB II; BD; Lot Nos. 6258541 and 7143896) was used for MIC testing of aerobic organisms. 0.002% polysorbate 80 (P80) was added to the test medium.
(§3) MIC values were determined using a broth microdilution procedure described by CLSI (1, 3). Automated liquid handlers (Multidrop 384, Labsystems, Helsinki, Finland; Biomek 2000 and Biomek FX, Beckman Coulter, Fullerton CA) were used to conduct serial dilutions and liquid transfers.
(§4) To prepare the drug mother plates, which would provide the serial peptide dilutions for the replicate daughter plates, the wells of columns 2-12 of standard 96-well microdilution plates (Costar 3795) were filled with 150 μl of the designated diluent for each row of peptide. The test articles and comparator compounds (300 μl at 40× the highest concentration to be tested) were dispensed into the appropriate wells in column 1. The Biomek 2000 was then used to make 2-fold serial dilutions in the mother plates from column 1 through column 11. The wells of Column 12 contained no drug and served as the organism growth control wells for the assay.
(§5) The daughter plates were loaded with 185 μL per well of MHB II using the Multidrop 384. The daughter plates were completed on the Biomek FX instrument which transferred 5 uL of peptide solution from each well of a mother plate to the corresponding well of each daughter plate in a single step. A standardized inoculum of each test organism was prepared per CLSI methods. The inoculum for each organism was dispensed into sterile reservoirs divided by length (Beckman Coulter), and the Biomek 2000 was used to inoculate the plates. Daughter plates were placed on the Biomek 2000 work surface in reverse orientation so that inoculation took place from low to high drug concentration. The plates were then inoculated with 10 μL of the inoculum resulting in a final cell density of approximately 5×10^5 CFU/mL, per well.
(§6) Plates were stacked 3-4 high, covered with a lid on the top plate, placed in plastic bags, and incubated at 35° C. for 16 to 20 hrs. Following incubation, the microplates were removed from the incubator and viewed from the bottom using a plate viewer. […] The MIC was read and recorded as the lowest concentration of peptide that inhibited visible growth of the organism.

[2] = system: Enterococcus faecalis ATCC 29212 (VSE; QC); settings: ATCC 29212
Description: as §1, §2, §3, §4, §5, §6

[3] = system: Enterococcus faecalis ATCC 700802 (V583 VRE); settings: ATCC 700802
Description: as §1, §2, §3, §4, §5, §6

[4] = system: Enterococcus faecium ATCC 51559 (VRE); settings: ATCC 51559
Description: as §1, §2, §3, §4, §5, §6

[5] = system: Escherichia coli ATCC 25922 (QC); settings: ATCC 25922
Description: as §1, §2, §3, §4, §5, §6

[6] = system: Escherichia coli ATCC 35218 (ESBL); settings: ATCC 35218
Description: as §1, §2, §3, §4, §5, §6

[7] = system: Escherichia coli ATCC BAA-2471 (NDM-1); settings: ATCC BAA-2471
Description: as §1, §2, §3, §4, §5, §6

[8] = system: Klebsiella pneumoniae ATCC BAA-1705 (KPC); settings: ATCC BAA-1705
Description: as §1, §2, §3, §4, §5, §6

[9] = system: Pseudomonas aeruginosa ATCC 27853 (non-MDR; QC); settings: ATCC 27853
Description: as §1, §2, §3, §4, §5, §6

[10] = system: Pseudomonas aeruginosa ATCC BAA-2109 (MDR); settings: ATCC BAA-2109
Description: as §1, §2, §3, §4, §5, §6

[11] = system: Staphylococcus aureus ATCC 29213 (MSSA; QC); settings: ATCC 29213
Description: as §1, §2, §3, §4, §5, §6

[12] = system: Staphylococcus aureus ATCC 43300 (MRSA); settings: ATCC 43300
Description: as §1, §2, §3, §4, §5, §6

[13] = system: Staphylococcus aureus NRS382 (USA100; HA-MRSA); settings: USA100
Description: as §1, §2, §3, §4, §5, §6

[14] = system: Streptococcus pneumoniae ATCC 49619 (QC); settings: ATCC 49619
Description: as §1, §2, §3, §4, §5, §6

[15] = system: Streptococcus pyogenes ATCC 49399; settings: ATCC 49399
Description: as §1, §2, §3, §4, §5, §6

[16] = system: Acinetobacter baumannii ATCC BAA-1797 (MDR); settings: ATCC BAA-1797
Description: as §1, §2, §3, §4, §5, §6

MIC [1]	MIC [2]	MIC [3]	MIC [4]	MIC [5]	MIC [6]	MIC [7]	MIC [8]	MIC [9]	MIC [10]	MIC [11]	MIC [12]	MIC [13]	MIC [14]	MIC [15]	MIC [16]	SMILES
8 µg/mL (≈ 2.75 µM)	8 µg/mL (≈ 2.75 µM)	8 µg/mL (≈ 2.75 µM)	4 µg/mL (≈ 1.37 µM)	4 µg/mL (≈ 1.37 µM)	8 µg/mL (≈ 2.75 µM)	4 µg/mL (≈ 1.37 µM)	32 µg/mL (≈ 11 µM)	8 µg/mL (≈ 2.75 µM)	4 µg/mL (≈ 1.37 µM)	8 µg/mL (≈ 2.75 µM)	4 µg/mL (≈ 1.37 µM)	4 µg/mL (≈ 1.37 µM)	16 µg/mL (≈ 5.5 µM)	16 µg/mL (≈ 5.5 µM)	8 µg/mL (≈ 2.75 µM)	CC[C@H](C)[C@H](N)C(=O)N[C@@H](CCCNC(=N)N)C(=O)N[C@@H](CCCNC(=N)N)C(=O)N[C@H](C(=O)N[C@H](C(=O)N[C@@H](CCCNC(=N)N)C(=O)N[C@@H](CCCNC(=N)N)C(=O)N[C@H](C(=O)N[C@@H](CCCNC(=N)N)C(=O)N[C@@H](CCCNC(=N)N)C(=O)N[C@H](C(=O)N[C@H](C(=O)N[C@@H](CCCNC(=N)N)C(=O)N[C@@H](CCCNC(=N)N)C(=O)N[C@H](C(=O)N[C@@H](CCCNC(=N)N)C(=O)N[C@@H](CCCNC(=N)N)C(=O)N[C@H](C(=O)N[C@H](C(=O)N[C@@H](CCCNC(=N)N)C(=O)N[C@@H](CCCNC(=N)N)C(=O)O)[C@@H](C)CC)[C@@H](C)CC)[C@@H](C)CC)[C@@H](C)CC)[C@@H](C)CC)[C@@H](C)CC)[C@@H](C)CC)[C@@H](C)CC [SEQ ID NO: 4] (H-IRRIIRRIRRIIRRIRRIIRR-OH; N-terminus and C-terminus assumed)
16 µg/mL (≈ 5.1 µM)	16 µg/mL (≈ 5.1 µM)	16 µg/mL (≈ 5.1 µM)	8 µg/mL (≈ 2.55 µM)	16 µg/mL (≈ 5.1 µM)	16 µg/mL (≈ 5.1 µM)	32 µg/mL (≈ 10.2 µM)	>32 µg/mL	>32 µg/mL	16 µg/mL (≈ 5.1 µM)	16 µg/mL (≈ 5.1 µM)	8 µg/mL (≈ 2.55 µM)	8 µg/mL (≈ 2.55 µM)	32 µg/mL (≈ 10.2 µM)	32 µg/mL (≈ 10.2 µM)		CC(C)[C@H](N)C(=O)N[C@@H](Cc1c[nH]c2ccccc12)C(=O)N[C@@H](CCCNC(=N)N)C(=O)N[C@@H](Cc1c[nH]c2ccccc12)C(=O)N[C@H](C(=O)N[C@@H](CCCNC(=N)N)C(=O)N[C@@H](CCCNC(=N)N)C(=O)N[C@H](C(=O)N[C@@H](Cc1c[nH]c2ccccc12)C(=O)N[C@@H](CCCNC(=N)N)C(=O)N[C@@H](Cc1c[nH]c2ccccc12)C(=O)N[C@H](C(=O)N[C@@H](CCCNC(=N)N)C(=O)N[C@@H](CCCNC(=N)N)C(=O)N[C@H](C(=O)N[C@@H](Cc1c[nH]c2ccccc12)C(=O)N[C@@H](CCCNC(=N)N)C(=O)N[C@@H](Cc1c[nH]c2ccccc12)C(=O)N[C@H](C(=O)N[C@@H](CCCNC(=N)N)C(=O)N[C@@H](CCCNC(=N)N)C(=O)O)C(C)C)C(C)C)C(C)C)C(C)C)C(C)C [SEQ ID NO: 5] (H-VWRWVRRVWRWVRRVWRWVRR-OH; N-terminus and C-terminus assumed)
0.5 µg/mL (≈ 0.238 µM)	2 µg/mL (≈ 0.954 µM)	4 µg/mL (≈ 1.91 µM)	0.5 µg/mL (≈ 0.238 µM)	2 µg/mL (≈ 0.954 µM)	1 µg/mL (≈ 0.477 µM)	1 µg/mL (≈ 0.477 µM)	4 µg/mL (≈ 1.91 µM)	16 µg/mL (≈ 7.63 µM)	8 µg/mL (≈ 3.82 µM)	0.5 µg/mL (≈ 0.238 µM)	0.5 µg/mL (≈ 0.238 µM)	0.5 µg/mL (≈ 0.238 µM)	8 µg/mL (≈ 3.82 µM)	4 µg/mL (≈ 1.91 µM)	0.5 µg/mL (≈ 0.238 µM)	CC(C)[C@H](N)C(=O)N[C@@H](Cc1c[nH]c2ccccc12)C(=O)N[C@@H](CCCNC(=N)N)C(=O)N[C@@H](Cc1c[nH]c2ccccc12)C(=O)N[C@H](C(=O)N[C@@H](CCCNC(=N)N)C(=O)N[C@@H](CCCNC(=N)N)C(=O)N[C@H](C(=O)N[C@@H](Cc1c[nH]c2ccccc12)C(=O)N[C@@H](CCCNC(=N)N)C(=O)N[C@@H](Cc1c[nH]c2ccccc12)C(=O)N[C@H](C(=O)N[C@@H](CCCNC(=N)N)C(=O)N[C@@H](CCCNC(=N)N)C(=O)O)C(C)C)C(C)C)C(C)C [SEQ ID NO: 6] (H-VWRWVRRVWRWVRR-OH; N-terminus and C-terminus assumed)

The remaining lines, values behind:

SMILES	MIC [1]	MIC [2]	MIC [3]	MIC [4]	MIC [5]	MIC [6]	MIC [7]	MIC [8]	MIC [9]	MIC [10]	MIC [11]	MIC [12]	MIC [13]	MIC [14]	MIC [15]	MIC [16]
CC[C@H](C)[C@H](N)C(=O)N[C@@H](CCCNC(=N)N)C(=O)N[C@@H](CCCNC(=N)N)C(=O)N[C@@H](CCCNC(=N)N)C(=O)N[C@@H](CCCNC(=N)N)C(=O)N[C@@H](CCCNC(=N)N)C(=O)N[C@@H](CCCNC(=N)N)C(=O)N[C@H](C(=O)N[C@@H](CCCNC(=N)N)C(=O)N[C@@H](CCCNC(=N)N)C(=O)N[C@@H](CCCNC(=N)N)C(=O)N[C@@H](CCCNC(=N)N)C(=O)N[C@@H](CCCNC(=N)N)C(=O)N[C@@H](CCCNC(=N)N)C(=O)O)[C@@H](C)CC [SEQ ID NO: 2] (H-IRRRRRRIRRRRRR-OH; N-terminus and C-terminus assumed)	32 µg/mL (≈ 15.1 µM)	>32 µg/mL	>32 µg/mL	16 µg/mL (≈ 7.55 µM)	16 µg/mL (≈ 7.55 µM)	16 µg/mL (≈ 7.55 µM)	32 µg/mL (≈ 15.1 µM)	>32 µg/mL	>32 µg/mL	8 µg/mL (≈ 3.78 µM)	16 µg/mL (≈ 7.55 µM)	16 µg/mL (≈ 7.55 µM)	8 µg/mL (≈ 3.78 µM)	>32 µg/mL	32 µg/mL (≈ 15.1 µM)	
CC[C@H](C)[C@H](N)C(=O)N[C@@H](CCCNC(=N)N)C(=O)N[C@@H](CCCNC(=N)N)C(=O)N[C@@H](CCCNC(=N)N)C(=O)N[C@H](C(=O)N[C@@H](CCCNC(=N)N)C(=O)N[C@@H](CCCNC(=N)N)C(=O)N[C@H](C(=O)N[C@@H](CCCNC(=N)N)C(=O)N[C@@H](CCCNC(=N)N)C(=O)N[C@@H](CCCNC(=N)N)C(=O)N[C@H](C(=O)N[C@@H](CCCNC(=N)N)C(=O)N[C@@H](CCCNC(=N)N)C(=O)N[C@H](C(=O)N[C@@H](CCCNC(=N)N)C(=O)N[C@@H](CCCNC(=N)N)C(=O)N[C@@H](CCCNC(=N)N)C(=O)N[C@H](C(=O)N[C@@H](CCCNC(=N)N)C(=O)N[C@@H](CCCNC(=N)N)C(=O)O)[C@@H](C)CC)[C@@H](C)CC)[C@@H](C)CC)[C@@H](C)CC)[C@@H](C)CC [SEQ ID NO: 3] (H-IRRRIRRIRRRIRRIRRRIRR-OH; N-terminus and C-terminus assumed)	8 µg/mL (≈ 2.63 µM)	32 µg/mL (≈ 10.5 µM)	>32 µg/mL	4 µg/mL (≈ 1.32 µM)	4 µg/mL (≈ 1.32 µM)	4 µg/mL (≈ 1.32 µM)	4 µg/mL (≈ 1.32 µM)	32 µg/mL (≈ 10.5 µM)	4 µg/mL (≈ 1.32 µM)	2 µg/mL (≈ 0.658 µM)	8 µg/mL (≈ 2.63 µM)	8 µg/mL (≈ 2.63 µM)	8 µg/mL (≈ 2.63 µM)	32 µg/mL (≈ 10.5 µM)	16 µg/mL (≈ 5.26 µM)	
